In US6080791A, “Method of treating a viral condition by inhibiting membrane fusion” (priority 1992, dated 2000):
Read-outs that look alike come from different tables or passages of the source.

What was measured:
[1] = tested on: hemagglutinin-mediated hemolysis of human red blood cells; test: Hemolysis (HEM) assay; type: cell-based, C22 influenza virus; human red blood cells; settings: for inhibition at 100 µM: log conc -4 (M)
in vitro = settings: dog, mdck
[2] = tested on: influenza-mediated syncytia formation, CV-1 cells; test: cells; settings: unidentified influenza virus, CV-1, read-out: IC50 syncytia
[3] = tested on: influenza-mediated syncytia formation, CV-1 cells
C22 virus in MDCK2 cells = test: microbe, parasite or virus in culture; settings: unidentified influenza virus; for inhibition at 1 µM / inhibition at 10 µM / inhibition at 100 µM: MDCK2, 15 h, read-out: infectivity % inhibition
hemoglobin = test: Hb control (quenching of OD570 of hemoglobin); parameters: species or system human
HIV-1 fusion protein = HIV-1 fusion protein (Human immunodeficiency virus type 1 group M subtype B, UniProt P04578); test: Inhibition of fusion mediated by the HIV-1 fusion protein; type: cell-based
[4] = molecular target: T1, hemagglutinin (Influenza A virus (A/X-31(H3N2)), UniProt P03438); test: Binding site by crystallography (preliminary)
T1 construct: HA1 and HA2 cleaved from precursor HA0

low pH BHA = test: SPA POST control (nonspecific quenching); parameters: species or system C22 / X31 influenza virus (H3N2)
Procedure: The compounds being screened by SPA are present during scintillation counting. Some of the chemicals, particularly those that are highly colored, quench the detection of radioactivity. A control ("POST") distinguishes whether apparent inhibition arises from inhibition of the conformational change or from nonspecific effects. The test compound is added to a sample of BHA that had previously been acidified and reneutralized. The mixture is then precipitated as usual. Since the BHA treated in this manner is known to be in the low pH conformation, a reduction in measurable cpm compared to controls with ligand omitted proves the compound interferes with the detection system.
^3 H-Leu BHA was diluted to 10,000 cpm (counts per minute) per 200 μl in MSSH buffer (10 mM HEPES, 10 mM MES, 10 mM succinate, 0.10 M NaCl, pH 7.0) containing 0.1% NP40. Protein was incubated with the specified concentration of trial compound for 25 minutes at RT. The same volume of solvent used to dissolve the compound was added to control samples and the final concentration of DMSO in all solutions was 0.67% v/v. A predetermined amount of 1N HAc was added to bring the reactions to the appropriate pH (usually pH 5.0). Following a 5 minute (unless specified otherwise) incubation at RT, reactions were reneutralized with 1N NaOH. For POST controls, compounds were added to the appropriate concentration after reneutralization. 200 μL aliquots of the protein solution were added to scintillation vials containing 100 μl protein A-SPA beads (Amersham), 5% fetal bovine serum (FBS), and antibody. Vials were incubated overnight at RT with constant shaking. Each reaction used 10 μl of fusion peptide antiserum diluted 1:10 with 50% glycerol. Cpm were detected in a Beckman LS3801 scintillation counter without addition of liquid scintillant.
Apparent inhibition due to nonspecific effects was quantitated from the POST controls with the equation:
observed cpm=true cpm*quench factor

[5] = unidentified influenza virus, Erythrocyte, 0.25 h, Table 6, 10^-3 = 1 mM, low pH 15 minutes, read-out: IC50 hemolysis
[6] = unidentified influenza virus, Erythrocyte, Table 7, read-out: HEM, negative log of IC50 (converted)
[7] = unidentified influenza virus, Erythrocyte, read-out: hemolysis % ↓ OD
[8] = MDCK2, read-out: IC50 infectivity
[9] = MDCK2, read-out: INF, negative log of IC50 (converted)

Compound	IC50 [1, 5] [µM]	IC50 [1, 6] [µM]	inhibition at 100 µM [1, 7] [%]	cytotoxicity at 15 h, 1 µM (in vitro) [%]	cytotoxicity at 15 h, 10 µM (in vitro) [%]	cytotoxicity at 15 h, 100 µM (in vitro) [%]	inhibition at 1 µM (C22 virus in MDCK2 cells) [%]	inhibition at 10 µM (C22 virus in MDCK2 cells) [%]	inhibition at 100 µM (C22 virus in MDCK2 cells) [%]	IC50 (C22 virus in MDCK2 cells; [8]) [µM]	IC50 (C22 virus in MDCK2 cells; [9]) [µM]	Hb control % ↓ OD (hemoglobin; log conc -4 (M)) [%]	other results
O=C1C=C(O)C(=O)c2ccccc21 [Compound 120, 2-hydroxy-1,4-naphthoquinone]	> 100	> 100	6.2	0.5 ± 0.3	-6 ± 5	-7 ± 4.4	7.1 ± 6.7	4.7 ± 0.9	-2.3 ± 3.1	> 1000	> 1000	4.4	inhibition of hemolytic activity [1]: did not; IC50 [2]: > 10 µM; inhibition of syncytia formation ([3]; 10 μM): Significant inhibition was not observed
O=C1C=CC(=O)c2ccccc21 [Compound 90, 1,4-naphthoquinone]	1000	1000	33.1	-6.7 ± 7.3	33 ± 9.9	96.8 ± 3.8	-3.3 ± 2.4	81.7 ± 2.2	96.9	10	10	57.1	inhibition at 1000 µM ([1]; unidentified influenza virus, Erythrocyte, log conc -3 (M), read-out: hemolysis % ↓ OD): 90.3%; inhibition at 10 µM ([1]; unidentified influenza virus, Erythrocyte, log conc -5 (M), read-out: hemolysis % ↓ OD): 4.7%; IC50 (HIV-1 fusion protein): 2 µM; binding site (preliminary crystallographic results) [4]: binding to hemagglutinin at a site in the hinge region of the trimer; % inhibition, POST control (low pH BHA; log conc -3 (M)): 68.2%; % inhibition, POST control (low pH BHA; log conc -4 (M)): 30.8%; % inhibition, POST control (low pH BHA; log conc -5 (M)): 4.6%; syncytia, Table 6 ([3]; Table 6): morph; Hb control % ↓ OD (hemoglobin; log conc -3 (M)): 68.1%; Hb control % ↓ OD (hemoglobin; log conc -5 (M)): 24.9%
